# Experiments:
# C. elegans [1] = experiment: Metabolic labeling with 59Fe or 59Fe-heme, heme isolation and TLC; assay type: in vivo, Caenorhabditis elegans; details: for radiolabel signal in heme extracted from labeled worms: 9.4×10^6 DPM, mCeHR
# Description: (E) Metabolic labeling in C. elegans cultured in the presence of heme. Synchronized L1 larvae were grown in mCeHR medium containing either ^59Fe or ^59Fe-heme (9.4×10^6 DPM) and the worms harvested as gravid adults. Heme was extracted and concentrated, and then resolved by TLC followed by detection with a PhosphorImager (top panel). Lane 5, ^59Fe-heme control. Radiolabeled bands were quantified in a gamma counter and CPM normalized to total protein (bottom panel). To correct for non-specific binding of the radiolabeled Fe and heme, parallel experiments were conducted in the presence of 1 mM sodium azide (samples 1 and 3).
# Preparation of hemin, hemin analogs and [^59Fe]Heme. Fresh stock solutions of hemin or hemin analogs (Frontier Sciences, Logan, Utah) were prepared immediately prior to use by dissolving required amounts in 0.3 M ammonium hydroxide. The pH of the stock solution was adjusted to pH 8.0 with 6 N HCl, and filter sterilized ([…]). The upper limit of free iron was estimated to be 3.8 nM/1 μM of hemin chloride by inductively coupled plasma-mass spectrometry (ICP-MS) analysis. For synthesis of ^59Fe-heme, 50 ml of glacial acetic acid was stirred under a constant flow of N2 at 60° C. followed by addition of 12 mg of protoporphyrin IX in pyridine for 30 min. To this mixture, 0.85 μCi of FeCl3 (specific activity 35.77 mCi/mg, Perkin Elmer, Boston, Mass.) was stirred in for an additional 3 h. Heme was extracted from this mixture with ethyl acetate followed by extensive washes with 4 N HCl and distilled water to remove unincorporated protoporphyrin IX and iron. The heme thus obtained was concentrated by evaporation of the ethyl acetate using a RotaVapor and frozen at −20° C. until further use. Total amount of ^59Fe-heme synthesized by this method was measured using a Packard Gamma Counter (˜21% efficiency). The purity of heme was determined by thin layer chromatography using silica gel 60 matrix in an NH4OH-saturated chamber with 2,6-lutidine/water solvent. We estimated the specific activity of ^59Fe-heme synthesized to be ˜2.8×10^6 DPM/nmol.
# Metabolic Labeling, Heme Isolation and Thin Layer Chromatography. Equal numbers of L1 worms were grown at 20° C. in mCeHR medium with 20 μM hemin and supplemented with 9.4×10^6 DPM of either ^59Fe-heme or ^59FeCl3. Radiolabeled adult worms were harvested by first incubating them in M9 buffer for 30 min to empty the gut contents. […] It was experimentally determined that this concentration of NaN3 was not lethal to worms. […] Plates were exposed to a PhosphorImager and the radiolabel signal corresponding to heme was excised and analyzed using a gamma counter. Counts (DPM) obtained were normalized for protein as determined by the bicinchoninic acid method (Sigma) performed on pre-aliquoted samples of intact worms. […]
# [2] = tested on: C. elegans wild-type N2 strain; experiment: Worm culture and growth assay in axenic CeHR/mCeHR liquid medium; assay type: in vivo; details: for support of worm growth as heme source: in vivo
# Description: (D) Biphasic response of C. elegans cultured in the presence of increasing amounts of hemin chloride (μM). Equal numbers of synchronized L1 larvae were grown in 24-well plates in mCeHR medium for 9 days and quantified (worms/μl) by microscopy. Each data point represents the mean±SD from three separate experiments performed in triplicate.
# (A) Aerobic growth of C. elegans in mCeFIR medium with 20 μM hemin supplemented with either gallium protoporphyrin IX (GaPP) or gallium salts. Synchronized L1 larvae were grown for 9 days in 24-well plates and quantified (worms/μl) by microscopy. Each data point represents the mean from a single experiment, and each experiment was performed in triplicate. Inset depicts the GaPP analysis at lower concentrations for clarity.
# (B) Effect of heme on the cytotoxicity of GaPP. Synchronized L1 larvae were inoculated in 24-well plates containing mCeHR medium with either 0, 2, 4, or 6 μM GaPP and increasing hemin (μM). The number of worms per μl was measured on day 9 and the data are presented as mean±SD.
# FIG. 9 depicts worm utilization of heme-iron under iron deprivation. Equal numbers of synchronized L1 larvae were grown in the presence of 4, 20, and 100 μM hemin, either in basal mCeHR medium (set 1), or basal medium lacking exogenous iron (set 2), or as set 2 with 1 μM of the iron chelator ferrozine (set 3), or as set 3 with 486 μM ferrous ammonium sulfate (set 4). These values of ferrozine and iron were empirically determined by performing dose-response experiments and analyzing worm growth. The number of worms per μl was measured on day 9 and the data presented as mean±SD performed in triplicate. P<0.001 between sets 1 and 3.
# To qualitatively and quantitatively determine the heme requirement of C. elegans, we assessed growth at various heme concentrations. Equal numbers of L1 larvae were inoculated in CeHR medium with either no cytochrome c and hemin, or with cytochrome c and increasing amounts of hemin (FIG. 4A). The effect of hemin became apparent within 48 hours and by 9 days, the heme-deplete worms were severely growth retarded at the L1/L2 stages. […] However, this stimulatory effect of heme was toxic to worms grown at heme concentrations >750 μM. To quantitatively assess the effect of heme on worms, we counted the number of live worms grown under different concentration of heme using DIC microscopy. […] On the basis of this association between heme and the growth and reproduction of C. elegans, we conclude that the biphasic nature of heme is likely due to the need for heme under heme-deprived conditions to perform essential metabolic functions, and the lethality of heme at high concentrations can be attributed to its cytotoxic activity.
# Worm Culture and Growth Assays. Free-living worms were cultured in CeHR axenic liquid medium (Dr. Eric Clegg, Personal Communication). […] CeHR medium was modified (henceforth called mCeHR) to eliminate all sources of exogenously added heme; basal growth medium comprised 20 μM hemin chloride (Frontier Scientific, Logan, Utah) and 150 μM of ferrous ammonium sulfate (Sigma Chemicals). Worm strains were grown in mCeHR medium under aerobic conditions in tissue culture flasks at 20° C. ˜3.7×10^6 worms were routinely obtained after 3.5 to 4 days in a T75 flask with 30 ml basal medium from an initial inoculum of −1.5×10^5 worms. For initial culturing of worms in axenic media, three generations of worms were sequentially bleached (1.1% bleach/0.55 M NaOH) to eliminate any contaminating bacterial carryover from agar plates. In all dose-response experiments, worms were growth synchronized by treating the gravid hermaphrodite worms with bleach to dissolve adult worms. The eggs, resistant to bleach, were liberated from the carcasses and extensively washed with M9 buffer followed by overnight hatching in M9 buffer to synchronize growth. By harvesting at appropriate time intervals, synchronous larval stages and adult staged worms were collected for experimental manipulations. […]
# C. elegans [3] = assay type: in vivo, Caenorhabditis elegans; details: in vivo
# Description: (C) Fluorescent metabolic labeling of worms with either 40 μM hemin (images 1, 4) or 40 μM ZnMP/4 μM hemin (images 2, 3, 5, 6) for 3 h followed by confocal microscopy with a 546 laser (images 1-3) and DIC optics (images 4-6). Arrowheads indicate ZnMP fluorescence accumulation within intestinal cells and developing embryos. For clarity, the boxed image in 2 is magnified in images 3 and 6. (Bar=100 μm).
# (D) Worms were incubated with 40 μM ZnMP/4 μM hemin for 16 h followed by a chase with 40 μM hemin. Worms were analyzed by epifluorescence microscopy (TRITC channel) and DIC optics. Experiments were performed either in the absence (images 1-4) or presence (images 5-8) of NaN3 during the chase periods to test for the non-specific loss of ZnMP fluorescence. Photomicrograph 4 is shown at a lower power to depict the complete loss of ZnMP fluorescence. (Bar=100 μm). For (C) and (D), four separate experiments were performed with a minimum of 50 worms per data point per experiment. The data are representative for >90% of worms analyzed.
# Because of the nature of the growth curve, we reasoned that heme homeostatis in C. elegans may be regulated in accordance with organismic needs and metabolic demands. […]
# Pulse-Chase Analysis. […] At timed intervals, aliquots of worms were removed into the appropriate medium containing 10 mM NaN3 mounted on a slide and immediately analyzed with a 543 He/Ne laser on a Zeiss 410 confocal microscope, or with a Peltier-cooled Retiga 1300 12-bit CCD camera fitted on to a Leica DMIRE2 autofluorescence/DIC microscope. Images were further analyzed with SIMPLEPCI v5.2 Software (Compix, Inc.). […] No loss of fluorescence was observed when labeling experiments were performed in parallel in the presence of 1 mM NaN3 during the chase period and when worms were incubated in medium without hemin. To account for background autouluorescence in C. elegans, the sensor gain of the CCD camera or the laser was set to subtract any fluorescence obtained from control worms incubated in the presence of 40 μM hemin.
compound,measurement,setting,value
[Cl][59Fe]([Cl])[Cl] [^59Fe],radiolabel signal in heme extracted from labeled worms,C. elegans [1],no radiolabeled signal
hemoglobin: hemoprotein used as heme source for worm growth,support of worm growth as heme source,[2],sustained worm growth
"CCC1=C(C)c2cc3[n-]c(cc4[n-]c(cc5nc(cc1n2)C(C)=C5CC)c(C)c4CCC(=O)O)c(CCC(=O)O)c3C.[Zn+2] [ZnMP, zinc mesoporphyrin IX]",time to discernable fluorescence signal in embryos,C. elegans [3],≤ 130 min
Cytochrome c: hemoprotein used as heme source for worm growth,support of worm growth as heme source,[2],sustained worm growth
"[N-]=[N+]=[N-] [NaN3, sodium azide]",lethality to worms,C. elegans [1]; 1 mM NaN3,not lethal
O=S(=O)([O-])c1ccc(-c2nnc(-c3ccccn3)nc2-c2ccc(S(=O)(=O)[O-])cc2)cc1.[Na+].[Na+] [ferrozine],effect on diminution in worm growth under iron deprivation,"[2]; 1 μM ferrozine, medium lacking exogenous iron",further accentuated
C=CC1=C(C)c2cc3[n-]c(cc4nc(cc5[n-]c(cc1n2)c(C)c5C=C)C(C)=C4CCC(=O)O)c(CCC(=O)O)c3C.[59Fe+2] [^59Fe-heme],radiolabel signal in heme extracted from labeled worms,C. elegans [1],specific signal
same,59Fe-heme uptake in metabolically inhibited worms,C. elegans [1]; in the presence of NaN3,negligible

# — patent US20060206946A1, “Method of disrupting heme transport in nematodes and of modelling and evaluating eukaryotic heme transport” (priority 2005, published 2006)
